Reference: ChEMBL document CHEMBL1201862, “PubChem BioAssay data set” (2004)
“And” between values parts separate entries of the source, which are not always exact repeats. Equal values may be shown once.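 48-hour exposure; five concentrations; linearly interpolated endpoints. GI50 marks 50% less growth.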 The source made the active and inactive calls. No stated cut-off is given here; in the data, active = GI50 up to about 1.1 µM and inactive = higher.

How the values were obtained:
Assay in all cases: NCI tumour cell line growth inhibition, 48 h
NCI-H226 = system: NCI-H226
RXF 393 = system: RXF 393
UACC-62 = system: UACC-62
SR = system: SR
OVCAR-3 = system: OVCAR-3
K562 = system: K562
IGROV-1 = system: IGROV-1
T47D = system: T47D
SK-MEL-2 = system: SK-MEL-2
SK-MEL-5 = system: SK-MEL-5
SF-295 = system: SF-295
LOX IMVI = system: LOX IMVI
CAKI-1 = system: CAKI-1
OVCAR-8 = system: OVCAR-8
MDA-N = system: MDA-N
NCI/ADR-RES = system: NCI/ADR-RES
UACC-257 = system: UACC-257
M14 = system: M14
U-251 = system: U-251
Malme-3M = system: Malme-3M

Measured: GI50

COc1ccc2cc(C(=O)NCCCNC(=O)c3ccc4cc(OC)ccc4c3)ccc2c1
inactive: NCI-H226 49.4 µM | RXF 393 15.8 µM | UACC-62 > 100 µM | SR > 100 µM | OVCAR-3 > 100 µM | K562 > 100 µM | IGROV-1 39.4 µM | T47D > 75.7 µM | SK-MEL-2 > 75.3 µM | SK-MEL-5 > 100 µM | SF-295 22.4 µM | LOX IMVI > 100 µM | CAKI-1 > 82.4 µM | OVCAR-8 22.6 µM | MDA-N > 100 µM | NCI/ADR-RES > 61.5 µM | UACC-257 > 96.2 µM | M14 > 100 µM | U-251 21.1 µM | Malme-3M > 100 µM

O=[N+]([O-])C(/C=C(\Cl)[N+](=O)[O-])=C(N1CCCCC1)N1CCCCC1
inactive: NCI-H226 56.5 µM | RXF 393 49.4 µM | UACC-62 18.6 µM | SR 14.1 µM | OVCAR-3 27.5 µM | K562 27 µM | IGROV-1 21.9 µM | T47D 53 µM | SK-MEL-2 30 µM | SK-MEL-5 21.7 µM | SF-295 > 100 µM | LOX IMVI 55.7 µM | CAKI-1 > 100 µM | OVCAR-8 44.8 µM | MDA-N 22.4 µM | NCI/ADR-RES 26.9 µM | UACC-257 25.3 µM | M14 20.1 µM | U-251 65 µM | Malme-3M 9.44 µM

O=C(NN1C(=O)C=CC1=O)c1ccccc1Nc1ccccc1C(=O)NN1C(=O)C=CC1=O
inactive: NCI-H226 > 100 µM | RXF 393 > 100 µM | UACC-62 > 100 µM | SR > 100 µM | OVCAR-3 > 100 µM | K562 > 100 µM | IGROV-1 > 100 µM | T47D > 100 µM | SK-MEL-2 > 100 µM | SK-MEL-5 > 100 µM | SF-295 > 100 µM | LOX IMVI > 100 µM | CAKI-1 > 100 µM | OVCAR-8 > 100 µM | MDA-N > 100 µM | NCI/ADR-RES > 100 µM | UACC-257 > 100 µM | M14 > 100 µM | U-251 > 100 µM | Malme-3M > 100 µM

c1ccc2sc(C3(N4CCC5(CC4)OCCO5)CCCCC3)cc2c1
inactive: NCI-H226 18.6 µM | RXF 393 > 100 µM | UACC-62 > 100 µM | SR 7.89 µM | OVCAR-3 > 100 µM | K562 > 100 µM | IGROV-1 > 100 µM | T47D > 100 µM | SK-MEL-5 50.5 µM | SF-295 > 100 µM | LOX IMVI > 100 µM | CAKI-1 > 100 µM | OVCAR-8 > 100 µM | MDA-N 80.4 µM | NCI/ADR-RES > 100 µM | UACC-257 60.1 µM | M14 61.1 µM | Malme-3M > 100 µM

c1ccc2c(c1)nc1n2CCSC1
inactive: RXF 393 > 100 µM | UACC-62 > 100 µM | SR > 100 µM | OVCAR-3 > 100 µM | K562 > 100 µM | IGROV-1 74.8 µM | T47D > 100 µM | SK-MEL-2 > 100 µM | SK-MEL-5 > 100 µM | SF-295 > 100 µM | LOX IMVI > 100 µM | CAKI-1 > 100 µM | MDA-N > 100 µM | NCI/ADR-RES > 100 µM | UACC-257 > 100 µM | M14 > 100 µM | U-251 > 100 µM

COc1c(NC(C)=O)c2ccccc2c2ccccc12
inactive: NCI-H226 49.5 µM | RXF 393 > 100 µM | UACC-62 > 100 µM | SR > 100 µM | OVCAR-3 > 100 µM | K562 75 µM | IGROV-1 > 100 µM | T47D > 100 µM | SK-MEL-2 > 100 µM | SK-MEL-5 > 100 µM | SF-295 > 100 µM | LOX IMVI > 100 µM | OVCAR-8 > 100 µM | MDA-N > 100 µM | NCI/ADR-RES > 100 µM | UACC-257 > 100 µM | M14 > 100 µM | U-251 > 100 µM | Malme-3M > 100 µM

CC(C)=CCNc1nc(Cl)nc2[nH]cnc12
inactive: NCI-H226 > 100 µM | RXF 393 25.2 µM | UACC-62 > 100 µM | SR 37 µM | OVCAR-3 > 100 µM | K562 32.1 µM | IGROV-1 > 100 µM | T47D 92 µM | SK-MEL-5 29.3 µM | SF-295 42.6 µM | LOX IMVI > 100 µM | CAKI-1 > 100 µM | OVCAR-8 46.5 µM | MDA-N > 100 µM | NCI/ADR-RES 35.7 µM | UACC-257 27.1 µM | M14 > 100 µM | Malme-3M 86.9 µM

COc1ccc([C@]23CCN4COC[C@@H]([C@H]42)C2(CC3)OCC(C)(C)CO2)cc1OC
inactive: NCI-H226 > 100 µM | RXF 393 > 100 µM | UACC-62 > 100 µM | SR > 100 µM | K562 > 100 µM | IGROV-1 > 100 µM | T47D 66.5 µM | SK-MEL-2 > 100 µM | SK-MEL-5 > 100 µM | SF-295 > 100 µM | LOX IMVI > 100 µM | CAKI-1 > 100 µM | OVCAR-8 > 100 µM | MDA-N > 100 µM | NCI/ADR-RES > 100 µM | UACC-257 > 100 µM | M14 > 100 µM | U-251 > 100 µM | Malme-3M > 100 µM

O=C1N/C(=N/N=C\C(O)C(O)C(O)C(O)CO)N/C1=C/c1ccc(Cl)cc1 (centres undefined)
inactive: NCI-H226 74.8 µM | RXF 393 > 100 µM | SR 47.2 µM | OVCAR-3 43.6 µM and 31.6 µM | K562 55.6 µM and 27.7 µM | IGROV-1 > 100 µM | T47D 49.7 µM and 36.6 µM | SK-MEL-2 > 100 µM | SK-MEL-5 > 100 µM | SF-295 > 100 µM | LOX IMVI > 100 µM | CAKI-1 > 100 µM | OVCAR-8 > 100 µM | MDA-N > 100 µM | NCI/ADR-RES > 100 µM | UACC-257 > 100 µM | M14 > 100 µM | U-251 > 100 µM | Malme-3M 97.3 µM

Cc1cc2c(cc1Cl)SSc1cc(Cl)c(C)cc1S(=O)(=O)Nc1nc(N)nn1C(O)n1nc(N)nc1NS2(=O)=O
inactive: NCI-H226 > 10 µM | RXF 393 > 10 µM | SR > 10 µM | OVCAR-3 > 10 µM | K562 > 10 µM | IGROV-1 > 10 µM | T47D > 10 µM | SK-MEL-2 > 10 µM | SK-MEL-5 > 10 µM | SF-295 > 10 µM | LOX IMVI > 10 µM | CAKI-1 > 10 µM | OVCAR-8 > 10 µM | MDA-N > 10 µM | NCI/ADR-RES > 10 µM | UACC-257 > 10 µM | M14 > 10 µM | U-251 > 10 µM | Malme-3M > 10 µM
